System: adrenocortical cells prepared from an adrenoma of a patient suffering from Conn's syndrome
Experiment: cells
Details: Homo sapiens, read-out: concentration effecting maximum inhibition of aldosterone secretion stimulated by angiotensin II

N#Cc1ccc(C2CCCc3cncn32)cc1 (racemic) [5-(p-cyanophenyl)-5,6,7,8-tetrahydroimidazo[1,5-a]pyridine]
IC (maximum): 0.1 µM

Source: US5057521A, “Use of bicyclic imidazole compounds for the treatment of hyperaldosteronism” (Ciba-Geigy Corporation, priority 1988, dated 1991)
